From patent publication US10023587B2, “Oxabicycloheptanes and oxabicycloheptenes, their preparation and use” (LIXTE BIOTECHNOLOGY, INC., priority 2007, dated 2018)
“Also recorded” adds a separate entry of the source. Where two headings read alike, the source gives them in different places.

Columns and labels:
[1] = system: GBM cell line U373; test: Inhibition of growth of GBM cell line U373 by single agents (cell counts); assay type: cell-based, human; details: for Inhibition of growth of cell line U373 (in words): single agent; for IC50: U373, exposure for 7 days, estimated from graphic plots (FIG. 1), read-out: concentration that inhibited brain tumor cell proliferation by 50% (IC50)
Source text: From graphic plots of the glioblastoma multiforme GBM cell line U373 (available from the National Institute of Neurological Disorders and Stroke Molecular Pathogenesis Unit, Building 10, Room 5 D37, National Institutes of Health, 900 Rockville Pike, Bethesda, Md., 20892) as a function of exposure to different doses of drug for 7 days, the concentration of each compound that inhibited brain tumor cell proliferation by 50% (IC50) was estimated.
To identify novel therapeutic targets for the treatment of glioblastoma multiforme (GBM), cantharidin analogues were evaluated for their ability to inhibit growth of glioblastoma multiforme cells. Specifically, GBM cell line U373 was used in evaluations.
(§1) The total number of cells is counted in the triplicate cultures at each dose and in controls after 7 days and the average number of cells and the standard deviation is determined.
(§2) The amount of inhibition of GBM cell growth is expressed as the proportion of the number of cells in the experimental dishes compared to the number of cells in control dishes containing only the drug vehicle and culture medium. The average percent of control is plotted and bracketed by one standard deviation calculated from the triplicate measurements.
For all cell culture experiments, cells are allowed to grow in the presence or absence of different concentrations of drug or in the presence of the vehicle used to dissolve the drug, PBS for compound 100 and DMSO for compound 102. Cell counts are done in triplicate on day 3 and day 7 and inhibition of growth is expressed as a percentage of the number of cells present in the experimental well divided by the number of cells in a control well.

[2] = system: GBM cell line U373; test: cells; assay type: cell-based, human
Procedure: as §1, with “To observe the effects Compound 100 in combination with retinoic acids, Compound 100 was combined with all-trans retinoic acid. […] The” for “The”
as §2
Synergism (potentiation) of the inhibitory activity of two drugs in combination is said to be present when the percent survival in the presence of two drugs is less than the product of the percent survivals of the two drugs used alone at the same doses in the combination.

[3] = system: kidney cancer cell line, UMRC; test: Inhibition of growth of kidney cancer cell line UMRC; assay type: cell-based; details: single agent, 7 days (FIG. 3)
Source text: (§3) To determine whether there is tumor type specificity of the inhibitory properties of analogues of Compound 100, retinoic acid and Trichostatin A, we measured their inhibitory effects as single agents against the GBM line U373, a breast cancer line, MCF-7 (obtained from ATCC) and a kidney cancer cell line, UMRC (UMRC obtained by Dr. Zhuang, NINDS, NIH from the Intramural Research Support Program, SAIC, National Cancer Institute, Frederick Cancer Research and Development Center).

[4] = system: breast cancer line, MCF-7; test: Inhibition of growth of breast cancer cell line MCF-7; assay type: cell-based; details: single agent, 7 days (FIG. 5)
Source text: as §3

[5] = Stability at acid pH; assay type: physicochemical
[6] = Solubility (water, lipid); assay type: physicochemical; details: own compounds
[7] = known cantharidin homologs, stated as known; cited from earlier work

Row | SMILES | melting point | Inhibition of growth of cell line U373 (in words) ([1]; 7 days) | Sensitivity of UMRC compared with U373 (in words) [3] | Inhibition of growth of MCF-7 (in words) [4] | other results
1 | COC(=O)C1C(C(=O)N2CCN(C)CC2)[C@@H]2CC[C@H]1O2 (stereo partly drawn) | 105 to 107 °C |  |  |  | 
2 | O=C(O)C1C(C(=O)N2CCNCC2)[C@@H]2CC[C@H]1O2 (stereo in doubt) [Compound 101, 3-(Piperazine-1-carbonyl)-7-oxa-bicyclo[2.2.1]heptane-2-carboxylic acid] | > 240 °C (dec.) | less activity |  |  | 
3 | O=C(O)C1C(C(=O)N2CCN(Cc3ccccc3)CC2)[C@@H]2CC[C@H]1O2 (stereo in doubt) [Compound 103, 3-(4-Benzylpiperazine-1-carbonyl)-7-oxa-bicyclo[2.2.1]heptane-2-carboxylic acid] | > 190 °C (dec.) | less activity |  |  | 
4 | COc1ccc(CCN2CCC(NC(=O)C3C(C(=O)O)[C@H]4CC[C@@H]3O4)CC2)cc1 (stereo in doubt) [Compound 104, 3-(1-[2-(4-Methoxy-phenyl)-ethyl]piperidin-4-ylcarbamoyl)-7-oxa-bicyclo[2.2.1]-heptane-2-carboxylic acid] | 140 to 142 °C | less activity |  |  | 
5 | CC1=C(/C=C/C(C)=C/C=C/C(C)=C/C(=O)O)C(C)(C)CCC1 [ATRA, all-trans retinoic acid] |  |  | less sensitive than the brain tumor line, U373 | an inhibition in growth | activity at 25 µM ([2]; Homo sapiens, U373 MG, 168 h, read-out: Percent of Control, Observed): 77%; Inhibition of growth of MCF-7 (in words) ([4]; listed as all-trans retinoic acid): as sensitive as U373
6 | CC1=C(/C=C/C(C)=C/C=C/C(C)=C\C(=O)O)C(C)(C)CCC1 [Cis-RA, 13-cis Retinoic Acid] |  |  |  |  | Percent of Control, Observed ([2]; Cis-RA 50 μM, U373 (Table 4)): 93.3 +/− 2.2% of Control
7 | CCN1CCN(C(=O)C2C(C(=O)O)[C@H]3CC[C@@H]2O3)CC1 (stereo partly drawn) [Compound 105, 1-(3-Exocarboxy-7-oxabicyclo[2.2.1]heptane-2-exocarbonyl)-4-ethylpiperazine] |  | Increasing dosages demonstrate a greater inhibition of growth |  |  | Stability at acid pH (in words) [5]: stable at acid pH; Water solubility (in words) [6]: water soluble; Inhibitory value against U373, comparison of the two compounds ([1]; 10 μM, seven days (FIG. 8)): identical inhibitory values; Inhibition of growth of cell line U373 (in words) ([1]; 7 days, listed as compound 105): highly active; Inhibition of growth of cell line U373 (in words) ([1]; after three days (FIG. 6)): Increasing dosages demonstrate a greater inhibition of growth
8 | CN(C)CCNC(=O)C1C(C(=O)O)[C@H]2CC[C@@H]1O2 (stereo partly drawn) [Compound 106] | 48 to 50 °C | less activity |  |  | 
9 | CC(/C=C/C(=O)NO)=C\[C@@H](C)C(=O)c1ccc(N(C)C)cc1 [TSA, Trichostatin A] |  |  | less sensitive than the brain tumor line, U373 | an inhibition in growth | Percent of Control, Observed ([2]; TSA 0.033 μM (0.01 μg/ml), U373 (Table 4)): 71.6 +/− 0.4% of Control; Inhibition of growth of MCF-7 (in words) ([4]; listed as Trichostatin A): as sensitive as U373
10 | C[C@@]12C(=O)OC(=O)[C@]1(C)[C@H]1CC[C@@H]2O1 [cantharidin] |  |  |  |  | Water solubility (in words) [7]: not
11 | O=C1SC(=O)[C@H]2[C@@H]1[C@@H]1CC[C@H]2O1 [endothal thioanhydride, reference compound] |  | Increasing dosages demonstrate a greater inhibition of growth; also recorded: greatest inhibition of growth | less sensitive than the brain tumor line, U373 | as sensitive as U373 | IC50 [1]: 2.5 µM
12 | O=C(O)[C@@H]1[C@H](C(=O)O)[C@H]2CC[C@@H]1O2 [endothal] |  | Increasing dosages demonstrate a greater inhibition of growth; also recorded: modest inhibition of growth | less sensitive than the brain tumor line, U373 | as sensitive as U373; also recorded: an inhibition in growth | Percent of Control, Observed ([2]; END 10 uM, U373, 7 days (Table 3)): 65%; IC50 [1]: 15 µM
13 | O=C1OC(=O)[C@H]2[C@@H]1[C@H]1CC[C@H]2O1 [norcantharidin] |  | Increasing dosages demonstrate a greater inhibition of growth | less sensitive than the brain tumor line, U373 | as sensitive as U373 | Water solubility (in words) [7]: not; IC50 [1]: 12 µM
